How the values were obtained:
recombinant ADAM17 = biological target: T1, recombinant ADAM17 (Homo sapiens, UniProt P78536); assay: Kinetic cleavage of fluorogenic TNF-α peptide ES003 by recombinant ADAM17; format: biochemical; conditions: for Ki: ES003 substrate, 4-h time point, non-linear regression, read-out: Inhibition constant Ki ADAM17
T1 construct: purchased R&D systems, Inc
Source text: A fluorescence based enzymatic assay was used to measure the cleavage of fluorogenic TNF-α and L-selectin (CD62L) peptides by either recombinant ADAMs or PBMC from healthy donors. The fluorogenic substrate, synthesized by Biomatik^3, was a Dabcyl (4-(4-dimethylaminophenylazo)benzoyl)- and Edans (5-[(2-aminoethyl)amino]naphthalene-1-sulfonic acid)- conjugated 12 amino acid peptide: Dabcyl-[…]-Edans that corresponds to the extracellular membrane proximal region of CD62L. […] The cleavage was measured in a kinetic assay every 3 min for 4 h in black 96-well plates using a Synergy_h1 fluorescent plate reader (BioTek) with 340 nm excitation and 490 nm emission wavelengths. […] PBMC were stimulated with anti-CD3 antibody for 2–4 days as described above.
96-well plate with data recorded every 3 minutes for 4 hours using a Synergy_h1 fluorescent plate reader. Each enzymatic reaction contained 50 -200 ng
Figure 2B and 2C bar diagrams are generated using the
data points at 4 hour time point of the enzymatic cleavages.

HIV-1LAI = assay: TEM of immunogold labeled CD62L on HIV-1LAI infected PBMC; format: cell-based
Procedure: For immunogold labeling, ~10^6 cells were washed with 2 mL PBS, gently centrifuged at 250 g for 5 min, resuspended in 100 μL of labeling buffer (PBS with 1% BSA), and incubated with 10 μg of mouse anti-human CD62L (clone FMC46, Thermofisher) for 1 h on ice. After removal of the primary antibody and wash, cells were incubated with 10 μg of secondary goat anti-mouse IgG H&L conjugated to 10 nm gold nanoparticles (Electron Microscopy Sciences) for 1 h on ice, then washed and fixed in 2.5% glutaraldehyde with 0.1 M sodium cacodylate at pH 7.4. Specimens for transmission electron microscopy (TEM) were fixed with 2.5% glutaraldehyde in 0.1 M Sorenson’s buffer. Samples were post-fixed 1 h with 0.5% osmium tetroxide/0.8% potassium ferricyanide, 1 h with 1% tannic acid and overnight with 1% uranyl acetate at 4°C. Samples were dehydrated with a graded ethanol series and embedded in Spurr’s resin. Thin sections were cut with a Leica UCT ultramicrotome (Vienna, Austria) stained with 1% uranyl acetate and Reynold’s lead citrate prior to viewing at 80 kV on a Hitachi 7500 transmission electron microscope (Hitachi-High Technologies, Tokyo, Japan). Approximately 100 images were acquired with an AMT digital camera system (AMT, Chazy, NY) from each sample on sections containing HIV virions. HIV virions are identified as ~100 nm sized particles with visible membrane enclosed capsid.

HIV-1 = assay: Ex vivo HIV-1 release from CD4 T cells of HIV-1 infected individuals; format: cell-based; conditions: 50 μM; for effect on viral release (virion-associated HIV RNA): CD4 T cells from six HIV-1 infected individuals, day 2 and 4
Procedure: PBMCs were collected from the study subjects in accordance with a clinical protocol approved by the Institutional Review Board of the National Institute of Allergy and Infectious Diseases, National Institutes of Health under protocol #02-I-0202. CD4^+ T cells were isolated from the PBMCs using a human CD4 T cell separation system (StemCell Technologies, Catalog 19052) and were cultured with medium alone or with plate-bound anti-CD3 and soluble anti-CD28 antibody in the absence or presence of 50 μM of indicated compounds for 48 h. The copy number of cell-free viron-associated HIV RNA in the culture supernatants was quantified using the Cobas Ampliprep/Cobas Taqman HIV-1 Test, Version 2.0 (Roche Diagnostics) with droplet digital PCR (ddPCR, BIO-RAD) on day 2 and 4 of stimulation.

CD4 T cells = assay: RNA sequencing of CD4 T cells, pathway gene expression; format: cell-based, human; conditions: compound alone
Procedure: CD4+ T cells were enriched from PBMC using EasySep™ human CD4 T cell enrichment kit ([…] Technologies Inc., MA 02142). To prepare samples for RNA sequencing, 5-10×10^6 PBMC or CD4+ T cells from either infected or uninfected samples were lysed for RNA isolation using RNeasy mini kit from QIAGEN. Samples of 2–10 μg RNA with concentration > 25 ng/μl and OD260/280 > 2.0 were used for cDNA library preparation of 250–300 base pair fragments in length, and high throughput sequencing using Illumina Miseq platform by Novogene (Novogene Corp Inc., CA 91914). A total of ~20×10^6 reads were recorded for each sample (Table 3). The mapping and assembly of raw sequencing reads, statistical and preliminary bioinformatic analyses were performed by Novogene. Subsequent gene expression analyses were performed based on expected Fragments Per Kilobase of transcript sequence per Millions base pairs sequenced (FPKM) using sequences of 20 reads or higher. All differential gene expression analyses were done between infected samples in the presence or absence of treatment and their donor matched uninfected controls. […] The RNAseq data is available in GEO database under accession number GSE218175.

[1] = biological target: T2, recombinant HIV-1 protease (Human immunodeficiency virus type 1 group M subtype B, UniProt P04585); assay: HIV-1 protease fluorogenic substrate cleavage; format: biochemical; conditions: 100nM saquinavir or nelfinavir; MMP inhibitors up to 10uM
T2 construct: recombinant HIV-1 protease; purchased Sigma-Aldrich SRP2151
Procedure: HIV-1 protease enzymatic activity was assayed in black 96-well plates at room temperature using a Synergy_h1 fluorescent plate reader with 340 nm excitation and 490 nm emission wavelengths (BioTek). Each enzymatic reaction consisted of a mixture of 100 ng of recombinant HIV-1 protease (Sigma-Aldrich catalog SRP2151), 5 μM concentration of a fluorogenic substrate Arg-Glu(EDANS)-[…]DABCYL)-Arg (Sigma-aldrich catalog H6660), and various concentrations of inhibitor compounds in 100 μL of assay buffer (0.15 M sodium chloride, 1.0 mM EDTA, 1.0 mM DTT, 0.1 M sodium acetate, pH 5.0). The fluorescence of the cleavage reaction was continuously read at every 30 s for a total of 40 min.

T1 sequence (P78536 215-824): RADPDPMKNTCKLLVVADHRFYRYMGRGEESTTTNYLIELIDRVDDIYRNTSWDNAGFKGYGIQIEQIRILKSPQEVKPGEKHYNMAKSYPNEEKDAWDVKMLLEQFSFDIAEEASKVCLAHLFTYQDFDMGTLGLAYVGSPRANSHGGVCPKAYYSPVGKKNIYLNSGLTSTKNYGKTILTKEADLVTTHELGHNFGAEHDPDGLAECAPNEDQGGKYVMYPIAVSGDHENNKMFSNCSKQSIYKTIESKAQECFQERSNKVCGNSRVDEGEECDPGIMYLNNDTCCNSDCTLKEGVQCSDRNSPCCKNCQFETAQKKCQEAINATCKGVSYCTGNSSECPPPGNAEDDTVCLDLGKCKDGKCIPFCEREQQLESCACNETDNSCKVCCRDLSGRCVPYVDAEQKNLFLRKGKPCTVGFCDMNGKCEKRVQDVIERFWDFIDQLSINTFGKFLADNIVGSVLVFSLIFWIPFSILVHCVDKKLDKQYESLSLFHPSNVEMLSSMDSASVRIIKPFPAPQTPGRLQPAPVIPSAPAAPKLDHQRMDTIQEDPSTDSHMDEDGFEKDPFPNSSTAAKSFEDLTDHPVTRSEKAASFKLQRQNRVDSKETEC

Structure (SMILES) | Ki (recombinant ADAM17) | gold particles bound to cell surface virions (HIV-1LAI; 50 μM, count in TEM images) | gold particles bound to released virions (HIV-1LAI; 50 μM, count in TEM images) | fraction of virion-associated gold particles on CD62L-tethered (budding) virions (HIV-1LAI; in presence of compound, DMSO 45%) | fraction of virion-associated gold particles on released virions (HIV-1LAI; in presence of compound, DMSO 55%) | effect on viral release (virion-associated HIV RNA) (HIV-1) | reductions in released virion-associated RNA (HIV-1; day 2 and 4 post stimulation) | transcription of type I interferon pathway genes (CD4 T cells; uninfected CD4 T cells) | expressions of cell cycle genes (CD4 T cells; without HIV-1 infection) | effect on HIV protease cleavage of fluorogenic substrate [1] | concentrations inhibiting ADAM17 enzymatic activity (recombinant ADAM17) | inhibition of ADAM17 cleavage of ES003 (recombinant ADAM17; 2 μM compound)
CNC(=O)[C@@H](NC(=O)[C@H](CCCc1ccccc1)[C@H](C)N(O)C=O)C(C)(C)C [GI254023X] | 3600 ± 380 nM | – | – | – | – | – | – | – | – | – | – | –
CNC(=O)[C@H](Cc1ccccc1)NC(=O)[C@H](CC(C)C)[C@H](CSc1cccs1)C(=O)NO [BB-94, Batimastat] | – | 63 | 17 | 79% | 21% | inhibited the viral release from all individuals | 2–50 fold | does not suppress the transcription of type I interferon pathway genes | decreased slightly the expressions of cell cycle genes | none of the MMP inhibitors, including BB-94, prinomastat, GM6001 and DMDP, inhibited the activity of HIV protease | – | –
CC1(C)SCCN(S(=O)(=O)c2ccc(Oc3ccncc3)cc2)[C@H]1C(=O)NO [prinomastat] | 48 ± 36 nM | – | – | – | – | inhibited viral release in a portion of the samples | – | – | – | none of the MMP inhibitors, including BB-94, prinomastat, GM6001 and DMDP, inhibited the activity of HIV protease | 20 to 50 nM | inhibited both ADAM10 and 17
